EC50 data for 27 compounds are collected here from US9409866B2, “Pyridine-2-amides useful as CB2 agonists” (Hoffmann-La Roche Inc., priority 2012, dated 2016).

Experiment [1] concerns the target human CB2 receptors (Homo sapiens (Human), UniProt P34972). The experiment can be described thus: functional cAMP assay, CHO cells expressing human CB2. Format: cell-based. Put shortly: (§1)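 Readout: TR-FRET cAMP detection at 730 and 645 nm with 355 nm excitation, quantified from a standard curve spanning 10 μM to 0.13 nM cAMP. Human CB1- or CB2-expressing CHO cells were exposed to compound for 30 min at 30 °C in KRB buffer containing 1 mM IBMX. EC50 derived.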

The target in experiment [2] is human CB1 receptors (Homo sapiens (Human), UniProt P21554). As to the kind of experiment: functional cAMP assay, CHO cells expressing human CB1. Format: cell-based. An outline of the steps: as §1
A general note: Changes in cAMP serve as a functional read-out for many G protein-coupled receptors.

[3] abbreviates: functional cAMP assay, CHO cells expressing human CB1, read-out: Human CB1 EC50.
The mark [4] stands for this setting: read-out: Human CB1 EC50, functional cAMP assay, CHO cells expressing human CB1.
[5] abbreviates: Human CB1 EC50 (uM), functional cAMP assay, CHO cells expressing human CB1.

SMILES strings stand for the structures. Where two headings read alike, the source gives them in different places.

human CB2 receptors, sequence (P34972 whole entry): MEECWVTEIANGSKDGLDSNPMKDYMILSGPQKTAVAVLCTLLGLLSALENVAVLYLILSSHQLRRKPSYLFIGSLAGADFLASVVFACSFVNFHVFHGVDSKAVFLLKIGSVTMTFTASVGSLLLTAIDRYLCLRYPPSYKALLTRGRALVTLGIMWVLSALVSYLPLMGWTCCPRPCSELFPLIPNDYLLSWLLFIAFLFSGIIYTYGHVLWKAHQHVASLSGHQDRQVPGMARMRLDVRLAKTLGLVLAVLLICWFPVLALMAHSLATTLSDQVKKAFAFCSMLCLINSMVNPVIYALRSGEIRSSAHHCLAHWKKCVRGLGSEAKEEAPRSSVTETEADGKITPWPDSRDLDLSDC
human CB1 receptors, sequence (P21554 whole entry): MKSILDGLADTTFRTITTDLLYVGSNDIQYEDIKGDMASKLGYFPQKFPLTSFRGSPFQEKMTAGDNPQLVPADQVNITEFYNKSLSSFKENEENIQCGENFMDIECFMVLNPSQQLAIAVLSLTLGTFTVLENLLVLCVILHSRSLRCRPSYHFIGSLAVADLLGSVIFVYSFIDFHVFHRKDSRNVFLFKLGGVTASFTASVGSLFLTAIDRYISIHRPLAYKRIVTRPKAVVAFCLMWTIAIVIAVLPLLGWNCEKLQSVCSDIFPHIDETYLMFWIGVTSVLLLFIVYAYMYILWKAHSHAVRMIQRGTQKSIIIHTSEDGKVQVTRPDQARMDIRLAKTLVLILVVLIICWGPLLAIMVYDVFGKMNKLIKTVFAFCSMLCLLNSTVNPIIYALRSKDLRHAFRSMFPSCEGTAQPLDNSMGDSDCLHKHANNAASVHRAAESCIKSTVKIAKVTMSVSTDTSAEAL

Consider `CC(CF)Oc1cc(C(=O)NC(C)(CC(N)=O)C2CC2)ncc1C1CC1` (stereo not drawn) [Example 293, N-(4-amino-2-cyclopropyl-4-oxobutan-2-yl)-5-cyclopropyl-4-(1-fluoropropan-2-yloxy)picolinamide], for which the EC50 (as a rule, the concentration needed to bring the measured effect to its halfway point) in experiment [1] (read-out: Human CB2 EC50) is 0.0013 µM; in experiment [2] (setting [3]) it was above 10 µM.
Regarding `Cc1nnc(C(C)(CC2CC2)NC(=O)c2cc(OCC(F)(F)F)c(C3CC3)cn2)o1` (single isomer, unassigned) [Example 185, 5-cyclopropyl-N-[1-cyclopropyl-2-(5-methyl-1,3,4-oxadiazol-2-yl)propan-2-yl]-4-(2,2,2-trifluoroethoxy)pyridine-2-carboxamide], the EC50 in experiment [1] (Human CB2 EC50 (uM)) is 0.0302 µM; in experiment [2] (setting [4]), above 10 µM.
For `Cc1nc(C(C)(NC(=O)c2cc(OCC3CC3)c(C3CC3)cn2)C2CC2)no1` (stereo not drawn) [Example 44, 5-Cyclopropyl-4-cyclopropylmethoxy-pyridine-2-carboxylic acid [1-cyclopropyl-1-(5-methyl-[1,2,4]oxadiazol-3-yl)-ethyl]-amide], the results for the EC50 in experiment [1] (read-out: Human CB2 EC50) and in experiment [2] (setting [3]) were 0.0007 µM and above 10 µM, respectively.
In the same order, the values of `CC(C)(CO)NC(=O)c1cc(-c2cccc(Cl)c2)c(Cl)cn1` [Example 2, 5-Chloro-4-(3-chlorophenyl)-pyridine-2-carboxylic acid (2-hydroxy-1,1-dimethyl-ethyl)-amide] are 0.0963 µM and above 10 µM.
As to `Cc1nnc(C(NC(=O)c2cc(OCC(F)(F)F)c(C3CC3)cn2)C(C)(C)C)o1` (single isomer, unassigned) [Example 179, 5-cyclopropyl-N-[2,2-dimethyl-1-(5-methyl-1,3,4-oxadiazol-2-yl)propyl]-4-(2,2,2-trifluoroethoxy)pyridine-2-carboxamide], the values for the EC50 in experiment [1] (Human CB2 EC50 (uM)) and in experiment [2] (setting [4]) were 0.0351 µM and above 10 µM, respectively.
For the compound `CCCC(C)(CO)NC(=O)c1cc(OCC2CC2)c(Cl)cn1` (stereo not drawn) [Example 33, 5-Chloro-4-cyclopropylmethoxy-pyridine-2-carboxylic acid (1-hydroxymethyl-1-methyl-butyl)-amide], the EC50 was 0.0244 µM in experiment [1] (read-out: Human CB2 EC50) and above 10 µM in experiment [2] (setting [3]).
For `Cc1nc(C(C)(CC2CC2)NC(=O)c2cc(O[C@@H](C)C(F)(F)F)c(C3(F)COC3)cn2)no1` (stereo partly drawn) [Example 170, N-[1-cyclopropyl-2-(5-methyl-1,2,4-oxadiazol-3-yl)propan-2-yl]-5-(3-fluorooxetan-3-yl)-4-[(2S)-1,1,1-trifluoropropan-2-yl]oxypyridine-2-carboxamide], the EC50 is 0.0254 µM in experiment [1] (read-out: Human CB2 EC50) and above 10 µM in experiment [2] (setting [3]).
In the same order, the values of `CN(C(=O)c1cc(-c2cccc(Cl)c2)ccn1)C(C)(C)C` [Example 86, 4-(3-Chloro-phenyl)-pyridine-2-carboxylic acid tert-butyl-methyl-amide] are 0.145 µM and above 10 µM.
Regarding `CC(C)(C)C(NC(=O)c1cc(OCC2CC2)c(C2CC2)cn1)c1nccs1` (stereo not drawn) [Example 43, 5-Cyclopropyl-4-cyclopropylmethoxy-pyridine-2-carboxylic acid (2,2-dimethyl-1-thiazol-2-yl-propyl)-amide], the EC50 in experiment [1] (read-out: Human CB2 EC50) is 0.0032 µM; in experiment [2] (setting [3]), above 10 µM.
On to `CC(C)(C)C(NC(=O)c1cc(OCC(F)(F)F)c(C2CC2)cn1)C(=O)N1CC(F)(F)C1` (stereo not drawn) [Example 197, 5-cyclopropyl-N-[1-(3,3-difluoroazetidin-1-yl)-3,3-dimethyl-1-oxobutan-2-yl]-4-(2,2,2-trifluoroethoxy)pyridine-2-carboxamide], for which the values for the EC50 in experiment [1] (read-out: Human CB2 EC50) and in experiment [2] (setting [3]) were 0.0076 µM and above 10 µM, respectively.
In the same order, the values of `Cc1nc(C(C)(NC(=O)c2cc(OCC(F)(F)F)c(Cl)cn2)C2CC2)no1` (stereo not drawn) [Example 62, 5-Chloro-4-(2,2,2-trifluoro-ethoxy)-pyridine-2-carboxylic acid [1-cyclopropyl-1-(5-methyl-[1,2,4]oxadiazol-3-yl)-ethyl]-amide] are 0.0089 µM and above 10 µM.
In the case of `CC(C)[C@](C)(CO)NC(=O)c1cc(OCC2CC2)c(Cl)cn1` [Example 14, 5-Chloro-4-cyclopropylmethoxy-pyridine-2-carboxylic acid ((R)-1-hydroxymethyl-1,2-dimethyl-propyl)-amide], the EC50 is 0.0128 µM in experiment [1] (read-out: Human CB2 EC50) and 6.98 µM in experiment [2] (setting [3]).
As to `CNC(=O)C(C)(NC(=O)c1cc(OCC(F)(F)F)c(C2CC2)cn1)c1noc(C)n1` (stereo not drawn) [Example 149, 5-cyclopropyl-N-[1-(methylamino)-2-(5-methyl-1,2,4-oxadiazol-3-yl)-1-oxopropan-2-yl]-4-(2,2,2-trifluoroethoxy)pyridine-2-carboxamide], the EC50 in experiment [1] (read-out: Human CB2 EC50) is 0.0127 µM; in experiment [2] (setting [3]) it was above 10 µM.
As for `C[C@H](Oc1cc(C(=O)NC(C(N)=O)C2(C)COC2)ncc1C1CC1)C(F)(F)F` (stereo partly drawn) [Example 251, N-[2-amino-1-(3-methyloxetan-3-yl)-2-oxoethyl]-5-cyclopropyl-4-[(2S)-1,1,1-trifluoropropan-2-yl]oxypyridine-2-carboxamide], the EC50 in experiment [1] (read-out: Human CB2 EC50) is 0.0089 µM; in experiment [2] (setting [3]), above 10 µM.
In the case of `CC(C)(C)C(NC(=O)c1cc(OCC2CC2)c(N2CC(F)(F)C2)cn1)C(N)=O` (single isomer, unassigned) [Example 261, N-[1-amino-3,3-dimethyl-1-oxobutan-2-yl]-4-(cyclopropylmethoxy)-5-(3,3-difluoroazetidin-1-yl)pyridine-2-carboxamide], the EC50 in experiment [1] (Human CB2 EC50 (uM)) was 0.0211 µM; in experiment [2] (setting [4]), above 10 µM.
Regarding `Cc1nnc(C(NC(=O)c2cc(O[C@@H](C)C(F)(F)F)c(C3CC3)cn2)C2(C)COC2)o1` (stereo partly drawn) [Example 246, 5-cyclopropyl-N-[(5-methyl-1,3,4-oxadiazol-2-yl)-(3-methyloxetan-3-yl)methyl]-4-[(2S)-1,1,1-trifluoropropan-2-yl]oxypyridine-2-carboxamide], the EC50 in experiment [1] (read-out: Human CB2 EC50) is 0.186 µM; in experiment [2] (setting [3]) it was above 10 µM.
With `Cc1nc(C(C)(CC2CC2)NC(=O)c2cc(OCC(F)(F)F)c(C3CCC3)cn2)no1` (stereo not drawn) [Example 108, 5-Cyclobutyl-4-(2,2,2-trifluoro-ethoxy)-pyridine-2-carboxylic acid [2-cyclopropyl-1-methyl-1-(5-methyl-[1,2,4]oxadiazol-3-yl)-ethyl]-amide], the EC50 stood at 0.0027 µM in experiment [1] (read-out: Human CB2 EC50) and 0.79 µM in experiment [2] (setting [3]).
As to `Cc1nc(C(C)(NC(=O)c2cc(O[C@H](C)C(F)(F)F)c(C3CC3)cn2)C2CC2)no1` (single isomer, unassigned; epimer b) [Example 73], the values for the EC50 in experiment [1] (read-out: Human CB2 EC50) and in experiment [2] (setting [3]) were 0.00025 µM and 0.017 µM, respectively.
In the same order, the values of `CNC(=O)[C@@H](NC(=O)c1cc(OC2COC2)c(Cl)cn1)C(C)(C)C` [Example 23, 5-Chloro-4-(oxetan-3-yloxy)-pyridine-2-carboxylic acid ((S)-2,2-dimethyl-1-methylcarbamoyl-propyl)-amide] are 0.205 µM and above 10 µM.
In the same order, the values of `O=C(c1cc(OCC(F)(F)F)c(C2CC2)cn1)N1CC(F)(F)C1` [Example 76, [5-Cyclopropyl-4-(2,2,2-trifluoro-ethoxy)-pyridin-2-yl]-(3,3-difluoro-azetidin-1-yl)-methanone] are 0.167 µM and above 10 µM.
In the case of `Cc1nc([C@@](C)(CC2CC2)NC(=O)c2cc(OCC(F)(F)F)c(N3CC(F)(F)C3)cn2)no1` (single isomer, unassigned) [Example 91, 5-(3,3-Difluoro-azetidin-1-yl)-4-(2,2,2-trifluoro-ethoxy)-pyridine-2-carboxylic acid [2-cyclopropyl-1-methyl-1-(5-methyl-[1,2,4]oxadiazol-3-yl)-ethyl]-amide], the EC50 was 0.0303 µM in experiment [1] (Human CB2 EC50 (uM)) and above 10 µM in experiment [2] (setting [5]).
With `CC(CF)Oc1cc(C(=O)NC(C)(CC(N)=O)C2CC2)ncc1C1CC1` (single isomer, unassigned) [Example 304, N-(4-amino-2-cyclopropyl-4-oxobutan-2-yl)-5-cyclopropyl-4-(1-fluoropropan-2-yloxy)picolinamide], the EC50 in experiment [1] (read-out: Human CB2 EC50) is 0.0021 µM; in experiment [2] (setting [3]) it was 0.82 µM.
On to `CC(C)(C)C(NC(=O)c1cc(OCC(F)(F)F)c(N2CC(F)(F)C2)cn1)C(N)=O` (single isomer, unassigned) [Example 263, N-[1-amino-3,3-dimethyl-1-oxobutan-2-yl]-5-(3,3-difluoroazetidin-1-yl)-4-(2,2,2-trifluoroethoxy)pyridine-2-carboxamide], for which the results for the EC50 in experiment [1] (Human CB2 EC50 (uM)) and in experiment [2] (setting [4]) were 0.0338 µM and above 10 µM, respectively.
In the case of `Cc1nc([C@@](C)(NC(=O)c2cc(OCC(F)(F)F)c(Cl)cn2)C2CC2)no1` (single isomer, unassigned; enantiomer b) [Example 75, 5-Chloro-4-(2,2,2-trifluoro-ethoxy)-pyridine-2-carboxylic acid [1-cyclopropyl-1-(5-methyl-[1,2,4]oxadiazol-3-yl)-ethyl]-amide (enantiomer B)], the results for the EC50 in experiment [1] (Human CB2 EC50 (uM)) and in experiment [2] (setting [5]) were 0.11 µM and above 10 µM, respectively.
Take `Cc1nc(C(C)(CS(C)(=O)=O)NC(=O)c2cc(OCC(F)(F)F)c(C3(F)COC3)cn2)no1` (single isomer, unassigned) [Example 132, 5-(3-fluorooxetan-3-yl)-N-[2-(5-methyl-1,2,4-oxadiazol-3-yl)-1-methylsulfonylpropan-2-yl]-4-(2,2,2-trifluoroethoxy)pyridine-2-carboxamide]: the EC50 in experiment [1] (read-out: Human CB2 EC50) was 0.333 µM; in experiment [2], above 10 µM.
Turning to `CC(C)C[C@H](NC(=O)c1cc(OCC(F)(F)F)c(C2CC2)cn1)C(N)=O` [Example 52, 5-Cyclopropyl-4-(2,2,2-trifluoro-ethoxy)-pyridine-2-carboxylic acid ((S)-1-carbamoyl-3-methyl-butyl)-amide], the values for the EC50 in experiment [1] (read-out: Human CB2 EC50) and in experiment [2] (setting [3]) were 0.0778 µM and above 10 µM, respectively.
In the same order, the values of `O=C(NC1(CO)CCCC1)c1cc(OCC2CC2)c(Cl)cn1` [Example 6, 5-Chloro-4-cyclopropylmethoxy-pyridine-2-carboxylic acid (1-hydroxymethyl-cyclopentyl)-amide] are 0.0524 µM and above 10 µM.
